Measured values published in patent publication US11806350B2, “Prevention and/or treatment of CNS disorders” (ILDONG PHARMACEUTICAL CO., LTD., priority 2020, dated 2023).

What was measured:
[1] = biological target: T1, Human recombinant adenosine A2A receptors (Homo sapiens, UniProt P29274); assay: Human adenosine A2A receptor binding assay ([3H]CGS-21680); settings: for Ki: membranes of HEK-293 cells, 50 nM [3H]CGS-21680, 90 minutes at 25° C., read-out: hA2A Ki; for activity as dual antagonists of both A2A and A1 receptors: summary in words of the A2A and A1 binding results of Table 2
T1 construct: expressed in transfected cells; host or cells: HEK-293 cells (membrane preparation)
Procedure: 2.2 Human Adenosine A2A Receptor Binding Assay
Test compound is weighed, dissolved in DMSO to make a stock solution of 10 mM, diluted with DMSO to prepare working solutions, then 100-fold diluted to the indicated concentrations. Human recombinant adenosine A2A receptors expressed in HEK-293 cells were used to prepare membranes in incubation buffer (50 mM Tris-HCl, pH 7.4, 10 mM MgCl2, 1 mM EDTA, 2 U/ml Adenosine Deaminase). Test compound or vehicle (2.2 μL) was added in 200 μL of membranes and incubated with 20 μL of 50 nM [^3H] […] Non-specific binding was estimated in the presence of 50 μM NECA (5′-N-ethylcarboxamidoadenosine). The incubation was stopped by vacuum filtration onto 0.3% PEI (polyethylenimine) presoaked GF/B filters using a harvester followed by four washes with ice-cold 50 mM Tris-HCl, pH 7.4, and the radioactivity on GF/B filtermats counted in a scintillation counter (PerkinElmer TOPCOUNT™) to determine [^3H] […] Final concentration of vehicle DMSO is 1%.
(§1) Data is fitted using the non-linear curve fitting routines in Meth-IQ software (ID Business Solutions Ltd., UK). IC50 is converted to Ki by Cheng-Prusoff equation: Ki=IC50/(1+[L]/KD) where [L] is concentration of radiolabeled ligand used in the assay.

[2] = biological target: T2, Human recombinant adenosine A1 receptors (Homo sapiens, UniProt P30542); assay: Human adenosine A1 receptor binding assay ([3H]DPCPX); settings: membranes of CHO-K1 cells, 1 nM [3H]DPCPX, 90 minutes at 25° C.; read-out: hAl Ki
T2 construct: expressed in transfected cells; host or cells: CHO-K1 cells (membrane preparation)
T2 sequence (P30542 1-326): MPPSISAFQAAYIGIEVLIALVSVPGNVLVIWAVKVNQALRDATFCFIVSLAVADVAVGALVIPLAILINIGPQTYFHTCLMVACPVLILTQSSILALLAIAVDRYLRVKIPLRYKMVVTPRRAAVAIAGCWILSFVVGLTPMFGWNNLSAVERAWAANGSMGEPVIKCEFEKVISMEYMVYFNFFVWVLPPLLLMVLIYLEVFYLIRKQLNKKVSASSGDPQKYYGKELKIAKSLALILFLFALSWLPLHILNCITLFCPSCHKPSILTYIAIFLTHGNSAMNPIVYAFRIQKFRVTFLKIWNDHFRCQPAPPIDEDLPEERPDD
Procedure: 2.1 Human Adenosine A1 Receptor Binding Assay
Test compound is weighed, dissolved in DMSO to make a stock solution of 10 mM, diluted with DMSO to prepare working solutions, then 100-fold diluted to the indicated concentrations. Human recombinant adenosine A1 receptors expressed in CHO-K1 cells were used to prepare membranes in incubation buffer (20 mM HEPES (4-(2-hydroxyethyl)-1-piperazineethanesulfonic acid) pH 7.4, 10 mM MgCl2, 100 mM NaCl). Test compound or vehicle (2.2 μL) was added in 200 μL of membranes and incubated with 20 μL of 1 nM [^3H] DPCPX (8-cyclopentyl-1,3-dipropylxanthine) for 90 minutes at 25° C. Non-specific binding was estimated in the presence of 100 μM R(−)-PIA ((R)—N-(1-methyl-2-phenylethyl)adenosine). The incubation was stopped by vacuum filtration onto 0.3% PEI (polyethylenimine) presoaked GF/B filters using a harvester followed by four washes with ice-cold 50 mM Tris-HCl, pH 7.4, and the radioactivity on GF/B filtermats counted in a scintillation counter (PerkinElmer Topcount™) to determine [^3H] DPCPX specifically bound. Final concentration of vehicle DMSO is 1%.
as §1

T1 sequence (P29274 whole entry): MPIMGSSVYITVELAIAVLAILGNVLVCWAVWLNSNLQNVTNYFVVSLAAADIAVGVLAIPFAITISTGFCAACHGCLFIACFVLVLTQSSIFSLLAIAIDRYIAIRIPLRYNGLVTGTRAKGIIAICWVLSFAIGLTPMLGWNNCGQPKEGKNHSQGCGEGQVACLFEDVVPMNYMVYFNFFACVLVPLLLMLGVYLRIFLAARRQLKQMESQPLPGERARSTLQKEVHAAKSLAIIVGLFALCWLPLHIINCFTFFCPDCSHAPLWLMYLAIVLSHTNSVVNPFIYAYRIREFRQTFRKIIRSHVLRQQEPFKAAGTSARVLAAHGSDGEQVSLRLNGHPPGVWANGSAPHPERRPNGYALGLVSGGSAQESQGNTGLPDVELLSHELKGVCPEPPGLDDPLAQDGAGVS

Compound: N#Cc1ccnc(-c2nc(N)nc3c2cnn3Cc2ccc(N)cc2F)c1 [Compound 220, 2-(6-amino-1-(4-amino-2-fluorobenzyl)-1H-pyrazolo[3,4-d]pyrimidine-4-yl)isonicotinonitrile]
- Ki [1]: 20 to 200 nM
- Ki [2]: 100 to 1000 nM

Compound: N#Cc1cccc(-c2nc(N)nc3c2cnn3Cc2ccc(N)cc2F)n1 [Compound 219, 6-[6-amino-1-[(4-amino-2-fluoro-phenyl)methyl]pyrazolo[3,4-d]pyrimidine-4-yl]pyridine-2-carbonitrile]
- Ki [1]: < 20 nM
- Ki [2]: 100 to 1000 nM

Compound: Cc1cc(Cn2ncc3c(-c4cccc(C#N)c4)nc(N)nc32)ccc1N [Compound 204, 3-(6-amino-1-(4-amino-3-methylbenzyl)-1H-pyrazolo[3,4-d]pyrimidine-4-yl)benzonitrile]
- Ki [1]: < 20 nM
- Ki [2]: 100 to 1000 nM

Compound: Cc1cc(Cn2ncc3c(-c4cc(C#N)ccn4)nc(N)nc32)ccc1N [Compound 228, 2-(6-amino-1-(4-amino-3-methylbenzyl)-1H-pyrazolo[3,4-d]pyrimidine-4-yl)isonicotinonitrile]
- Ki [1]: 20 to 200 nM
- Ki [2]: 100 to 1000 nM

Compound: Cc1cc(Cn2ncc3c(-c4cccc(C#N)c4F)nc(N)nc32)ccc1N [Compound 206, 3-(6-amino-1-(4-amino-3-methylbenzyl)-1H-pyrazolo[3,4-d]pyrimidine-4-yl)-2-fluorobenzonitrile]
- Ki [1]: < 20 nM
- activity as dual antagonists of both A2A and A1 receptors [1]: potent activity as dual antagonists
- Ki [2]: ≤ 100 nM

Compound: N#Cc1cncc(-c2nc(N)nc3c2cnn3Cc2c(F)cccc2F)c1 [Compound 233, 5-(6-amino-1-(2,6-difluorobenzyl)-1H-pyrazolo[3,4-d]pyrimidine-4-yl)nicotinonitrile]
- Ki [1]: 200 to 1000 nM
- Ki [2]: 1000 to 10000 nM

Compound: N#Cc1cccc(-c2nc(N)nc3c2cnn3Cc2ccc(N)cc2F)c1 [Compound 209, 3-(6-amino-1-(4-amino-2-fluorobenzyl)-1H-pyrazolo[3,4-d]pyrimidine-4-yl)benzonitrile]
- Ki [1]: < 20 nM
- Ki [2]: 100 to 1000 nM

Compound: N#Cc1cc(-c2nc(N)nc3c2cnn3Cc2c(F)cc(N)cc2F)ccn1 [Compound 226, 4-(6-amino-1-(4-amino-2,6-difluorobenzyl)-1H-pyrazolo[3,4-d]pyrimidine-4-yl)picolinonitrile]
- Ki [1]: 1000 to 5000 nM
- Ki [2]: > 10000 nM

Compound: N#Cc1cncc(-c2nc(N)nc3c2cnn3Cc2ccc(N)cc2F)c1 [Compound 221, 5-[6-amino-1-[(4-amino-2-fluoro-phenyl)methyl]pyrazolo[3,4-d]pyrimidine-4-yl]pyridine-3-carbonitrile]
- Ki [1]: 1000 to 5000 nM
- Ki [2]: > 10000 nM

Compound: N#Cc1cncc(-c2nc(N)nc3c2cnn3Cc2c(F)cc(N)cc2F)c1 [Compound 225, 5-[6-amino-1-[(4-amino-2,6-difluoro-phenyl)methyl]pyrazolo[3,4-d]pyrimidine-4-yl]pyridine-3-carbonitrile]
- Ki [1]: 1000 to 5000 nM
- Ki [2]: 1000 to 10000 nM

Compound: N#Cc1ccnc(-c2nc(N)nc3c2cnn3Cc2c(F)cc(N)cc2F)c1 [Compound 224, 2-[6-amino-1-[(4-amino-2,6-difluoro-phenyl)methyl]pyrazolo[3,4-d]pyrimidine-4-yl]pyridine-4-carbonitrile]
- Ki [1]: 20 to 200 nM
- Ki [2]: 100 to 1000 nM

Compound: N#Cc1cccc(-c2nc(N)nc3c2cnn3Cc2ccc(N)c(C(F)(F)F)c2)c1F [Compound 211, 3-(6-amino-1-(4-amino-3-(trifluoromethyl)benzyl)-1H-pyrazolo[3,4-d]pyrimidine-4-yl)-2-fluorobenzonitrile]
- Ki [1]: < 20 nM
- activity as dual antagonists of both A2A and A1 receptors [1]: potent activity as dual antagonists
- Ki [2]: ≤ 100 nM

Compound: N#Cc1cc(-c2nc(N)nc3c2cnn3Cc2ccc(N)cc2F)ccn1 [Compound 222, 4-(6-amino-1-(4-amino-2-fluorobenzyl)-1H-pyrazolo[3,4-d]pyrimidine-4-yl)picolinonitrile]
- Ki [1]: 1000 to 5000 nM
- Ki [2]: > 10000 nM

Compound: N#Cc1cccc(-c2nc(N)nc3c2cnn3Cc2ccc(N)cc2F)c1F [Compound 203, 3-(6-amino-1-(4-amino-2-fluorobenzyl)-1H-pyrazolo[3,4-d]pyrimidine-4-yl)-2-fluorobenzonitrile]
- Ki [1]: < 20 nM
- activity as dual antagonists of both A2A and A1 receptors [1]: potent activity as dual antagonists
- Ki [2]: ≤ 100 nM

Compound: CCn1c(=O)c2c(nc(/C=C/c3ccc(OC)c(OC)c3)n2C)n(CC)c1=O [Istradefylline, reference compound]
- Ki [2]: 100 to 1000 nM

Compound: N#Cc1ccnc(-c2nc(N)nc3c2cnn3Cc2c(F)cccc2F)c1 [Compound 232, 2-(6-amino-1-(2,6-difluorobenzyl)-1H-pyrazolo[3,4-d]pyrimidine-4-yl)isonicotinonitrile]
- Ki [1]: 20 to 200 nM
- Ki [2]: 100 to 1000 nM

Compound: N#Cc1cccc(-c2nc(N)nc3c2cnn3Cc2c(F)cccc2F)n1 [Compound 231, 6-(6-amino-1-(2,6-difluorobenzyl)-1H-pyrazolo[3,4-d]pyrimidine-4-yl)picolinonitrile]
- Ki [1]: < 20 nM
- Ki [2]: 100 to 1000 nM

Compound: N#Cc1ccnc(-c2nc(N)nc3c2cnn3Cc2ccc(N)cc2)c1 [Compound 216, 2-(6-amino-1-(4-aminobenzyl)-1H-pyrazolo[3,4-d]pyrimidine-4-yl)isonicotinonitrile]
- Ki [1]: 200 to 1000 nM
- Ki [2]: 1000 to 10000 nM

Compound: N#Cc1cc(-c2nc(N)nc3c2cnn3Cc2ccc(N)cc2)ccn1 [Compound 218, 4-(6-amino-1-(4-aminobenzyl)-1H-pyrazolo[3,4-d]pyrimidine-4-yl)picolinonitrile]
- Ki [1]: 1000 to 5000 nM
- Ki [2]: 1000 to 10000 nM

Compound: N#Cc1cccc(-c2nc(N)nc3c2cnn3Cc2c(F)cc(N)cc2F)c1 [Compound 207, 3-(6-amino-1-(4-amino-2,6-difluorobenzyl)-1H-pyrazolo[3,4-d]pyrimidine-4-yl)benzonitrile]
- Ki [1]: < 20 nM
- activity as dual antagonists of both A2A and A1 receptors [1]: potent activity as dual antagonists
- Ki [2]: ≤ 100 nM

Compound: N#Cc1cccc(-c2nc(N)nc3c2cnn3Cc2c(F)cccc2F)c1F [Compound 213, 3-(6-amino-1-(2,6-difluorobenzyl)-1H-pyrazolo[3,4-d]pyrimidine-4-yl)-2-fluorobenzonitrile]
- Ki [1]: < 20 nM
- activity as dual antagonists of both A2A and A1 receptors [1]: potent activity as dual antagonists
- Ki [2]: ≤ 100 nM

Compound: N#Cc1cccc(-c2nc(N)nc3c2cnn3Cc2c(F)cc(N)cc2F)n1 [Compound 223, 6-[6-amino-1-[(4-amino-2,6-difluoro-phenyl)methyl]pyrazolo[3,4-d]pyrimidine-4-yl]pyridine-2-carbonitrile]
- Ki [1]: < 20 nM
- Ki [2]: 100 to 1000 nM

Compound: N#Cc1cncc(-c2nc(N)nc3c2cnn3Cc2ccc(N)cc2)c1 [Compound 217, 5-(6-amino-1-(4-aminobenzyl)-1H-pyrazolo[3,4-d]pyrimidine-4-yl)nicotinonitrile]
- Ki [1]: 1000 to 5000 nM
- Ki [2]: > 10000 nM

Compound: N#Cc1cc(-c2nc(N)nc3c2cnn3Cc2c(F)cccc2F)ccn1 [Compound 234, 4-[6-amino-1-[(2,6-difluorophenyl)methyl]pyrazolo[3,4-d]pyrimidine-4-yl]pyridine-2-carbonitrile]
- Ki [1]: 200 to 1000 nM
- Ki [2]: 1000 to 10000 nM

Compound: Cc1cc(Cn2ncc3c(-c4cccc(C#N)n4)nc(N)nc32)ccc1N [Compound 227, 6-(6-amino-1-(4-amino-3-methylbenzyl)-1H-pyrazolo[3,4-d]pyrimidine-4-yl)picolinonitrile]
- Ki [1]: < 20 nM
- Ki [2]: 100 to 1000 nM

Compound: N#Cc1cccc(-c2nc(N)nc3c2cnn3Cc2ccc(N)cc2)n1 [Compound 215, 6-(6-amino-1-(4-aminobenzyl)-1H-pyrazolo[3,4-d]pyrimidine-4-yl)picolinonitrile]
- Ki [1]: 20 to 200 nM
- Ki [2]: 100 to 1000 nM
